In the assay the test system is M. tuberculosis H37Rv growth inhibition with meropenem. Description: M. tuberculosis growth inhibition, H37Rv, set 2, dose response (AID 504703).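 Note: growth ran 7 days at 37 °C then overnight with Alamar Blue before reading.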
[1] abbreviates: M. tuberculosis H37Rv growth inhibition, measured here: IC50 without meropenem.
The mark [2] stands for this setting: M. tuberculosis H37Rv growth inhibition, measured here: IC90 without meropenem.
Where [3] appears, read: measured here: IC90 with meropenem.

Each structure is given as a SMILES string. Values joined by “and” are separate entries in the source; they are usually repeats but may differ in a detail not shown here. Equal entries are not always repeated. Active and inactive are the calls of the source. The rule behind the calls is not given here.

Drawing on PubChem BioAssay AID504703 (Southern Research Specialized Biocontainment Screening …, 2011), this text covers IC50 and IC90 for 33 compounds.

As for `COc1cccc(NC(=S)Nc2cc(C)cc(C)n2)c1`, the IC50 was 7200 nM (inactive). Under setting [1], the IC50 was determined as 14400 nM. Besides, under setting [2], the IC90 is > 25 µM. Under setting [3], the IC90 is > 25 µM.
As for `Cc1cc2cc(F)ccc2[nH]1`, the IC50 under setting [1] was > 25000 nM. For the same compound, the IC90 under setting [2] was > 25 µM.
In the case of `COC(=O)c1c(C)[nH]c2ccc(F)cc12`, the IC50 under setting [1] is > 25000 nM. Besides, under setting [2], the IC90 was > 25 µM.
For `Cc1ccccc1OCC(=O)Nc1nnn(C)n1` the same measures were > 25000 nM and > 25 µM.
In the same order, the values of `CC(C)(C)c1ccc(OCC(=O)Nc2nc3ccccc3s2)cc1` are > 25000 nM and > 25 µM.
Regarding `CCOc1ccc2c(c1)c(C(C)=O)c(C)n2-c1ccccc1`, the IC50 under setting [1] was > 25000 nM. In addition, the IC90 is > 25 µM under setting [2]; > 18.8 µM and 2.79 µM under setting [3].
`Cc1ccc2oc(/N=C(\N)NC(=O)c3ccccc3)nc2c1`: the IC50 under setting [1] is > 25000 nM. In addition, the concentration for an effect of 90% (IC90) under setting [2] is > 25 µM.
Turning to `Cc1cc(C)c(OCC(=O)Nc2nc3ccccc3[nH]2)c(C)c1`, the IC50 is 5550 nM (inactive). In addition, under setting [1], the IC50 is > 18800 nM and 7460 nM. For the same compound, under setting [2], the IC90 was > 25 µM. Moreover, the IC90 under setting [3] was > 25 µM.
For the compound `CCOc1ccc2c(c1)c(C(C)=O)c(C)n2-c1ccccc1Cl`, the IC50 was 13600 nM (inactive). Further, under setting [1], the IC50 is > 25000 nM. Besides, under setting [2], the IC90 is > 25 µM. Besides, the IC90 under setting [3] was > 25 µM.
On to `N/C(=N\c1nc2ccccc2o1)NC(=O)C1CC1`, for which, under setting [1], the IC50 is > 25000 nM. In addition, the IC90 under setting [2] is > 25 µM.
In the same order, the values of `Cc1ccc2sc(NC(=O)COc3ccccc3)nc2c1C` are 23700 nM and > 25 µM.
In the case of `COc1cccc(-c2ccc(-c3noc(-c4ccccc4F)n3)c(OC)n2)c1`, the IC50 was > 25000 nM (inactive). Also, the IC50 under setting [1] was > 25000 nM. In addition, under setting [2], the IC90 is > 25 µM. Under setting [3], the IC90 is > 25 µM.
`O=C(COc1ccccc1Cl)Nc1nc2ccccc2s1`: the IC50 under setting [1] is > 25000 nM. Also, the IC90 under setting [2] is > 25 µM.
For `CCOC(=O)c1c(C)[nH]c2ccccc12` the same measures were > 25000 nM and > 25 µM.
Regarding `CCOc1ccc2nc(NC(=O)Cc3ccc(OC)cc3)sc2c1`, the IC50 under setting [1] was > 25000 nM. Further, under setting [2], the IC90 is > 25 µM.
Take `Cc1ccc(OCC(=O)Nc2ccc(Cl)cc2)c(C)c1`: under setting [1], the IC50 was > 25000 nM. Also, the IC90 under setting [2] was > 25 µM.
On to `N/C(=N\c1nc2ccccc2o1)NC(=O)c1ccccc1F`, for which, under setting [1], the IC50 was > 25000 nM. Under setting [2], the IC90 is > 25 µM.
On to `N/C(=N\c1nc2cc(Cl)ccc2o1)NC(=O)c1ccccc1`, for which the half-inhibitory concentration (IC50) under setting [1] is > 25000 nM. For the same compound, the IC90 under setting [2] is > 25 µM.
Turning to `O=C(COc1ccccc1)Nc1nc2ccccc2s1`, the IC50 under setting [1] is > 25000 nM. Moreover, the IC90 under setting [2] is > 25 µM.
For `CC(=O)c1c(C)n(-c2ccccc2)c2ccc(OC(C)C)cc12` the same measures were > 25000 nM and > 25 µM.
In the same order, the values of `CCC(=O)N/C(N)=N/c1nc2ccccc2o1` are > 25000 nM and > 25 µM.
In the same order, the values of `COc1ccc2nc(NC(=O)COc3ccccc3)sc2c1` are > 25000 nM and > 25 µM.
Regarding `O=C(OC(C(=O)Nc1ccc(Cl)cc1C(F)(F)F)c1ccccc1)C1=COCCO1` (stereo unspecified), the IC50 under setting [1] was 16900 nM. Also, the IC90 was > 25 µM under setting [2] and > 25 µM under setting [3].
As to `CCOc1ccc2[nH]c(C)cc2c1`, under setting [1], the IC50 was > 25000 nM. Moreover, the IC90 under setting [2] was > 25 µM.
Consider `N/C(=N\c1nc2ccccc2o1)NC(=O)c1ccccc1Br`, for which the IC50 under setting [1] is 8260 nM. Besides, the IC90 is > 25 µM under setting [2] and > 25 µM under setting [3].
As for `CN(NC(=O)c1c(Cl)cccc1Cl)c1cccc(Cl)n1`, the IC50 is 15500 nM (inactive). Moreover, the IC50 under setting [1] is > 25000 nM. Under setting [2], the IC90 was > 25 µM. Further, the IC90 under setting [3] is > 25 µM.
As to `CCOc1ccc2c(c1)c(CC)c(C)n2-c1ccccc1`, the IC50 under setting [1] was > 25000 nM. Moreover, the IC90 is, setting by setting: under setting [2], > 25 µM; under setting [3], > 25 µM.
Regarding `O=C(CCS(=O)(=O)c1ccc(F)cc1)Nc1nnc(-c2cccs2)o1`, the IC50 was > 18.8 µM (inactive) and 22.4 µM (inactive). Also, the IC50 under setting [1] is > 25000 nM. Under setting [2], the IC90 is > 25 µM. Besides, the IC90 under setting [3] was > 25 µM.
For the compound `CCOc1ccc2nc(NC(=O)COc3ccc(Cl)c(C)c3)sc2c1`, the IC50 under setting [1] is > 25000 nM. Further, the IC90 under setting [2] was > 25 µM.
`CCOc1ccc2c(c1)cc(C)n2-c1ccccc1`: the IC50 was 11500 nM (inactive). Further, under setting [1], the IC50 is > 25000 nM. Besides, under setting [2], the IC90 is > 25 µM. In addition, the IC90 under setting [3] is > 25 µM.
Regarding `Cc1ccc(OCC(=O)Nc2cccc3c(NC(=O)COc4ccc(C)cc4C)cccc23)c(C)c1`, the IC50 under setting [1] was > 25000 nM. Further, under setting [2], the IC90 was > 25 µM.
For `Cc1ccc(OCC(=O)Nc2nc3c(Cl)cccc3s2)cc1` the same measures were > 25000 nM and > 25 µM.
For the compound `Cc1cccnc1NC(=S)NC(=O)c1cncc(Br)c1`, the IC50 is 2710 nM (inactive). Also, the IC50 under setting [1] is 4210 nM. The IC90 under setting [2] is > 25 µM. Also, under setting [3], the IC90 was > 25 µM.
